Assay results from patent publication US20100143364A1, “Chimeric Antibodies, Compositions and Methods for Treating Cocaine-Related Disorders” (Vybion, Inc., priority 2008, published 2010).

Test: pharmacokinetics of cocaine in plasma after i.v. cocaine HCl
Assay type: in vivo
Conditions: 2-compartment model, no antibody, i.v. cocaine HCl 0.56 mg/kg
Procedure: The monoclonal antibodies, variants and/or derivatives of the present invention use their binding affinity for cocaine and its derivatives to reduce the concentration of cocaine or its derivatives in the brain. Infused antibodies, variants and/or derivatives also produce a dramatic dose-dependent increase in plasma cocaine concentrations and a concomitant decrease in the brain cocaine concentrations produced by an i.v. injection of cocaine HCI (0.56 mg/kg). […] The anti-cocaine antibodies, variants and/or derivatives of the invention increase the area under the plasma cocaine concentration-time curve (AUC) relative to the AUC in the absence of the anti-cocaine antibodies of the invention. The antibodies, variants and/or derivatives of the present invention decrease cocaine's volume of distribution (l/kg). However, cocaine is still rapidly cleared from plasma and its elimination is described by a single compartment model. The antibodies, variants and/or derivatives also produce a decrease in the cocaine AUC in the brain. Therefore, the effect of the antibodies on plasma and brain cocaine concentrations is predominantly due to a change in the distribution of cocaine with negligible effects on its rate of clearance.

With COC(=O)[C@H]1[C@@H](OC(=O)c2ccccc2)C[C@@H]2CC[C@H]1N2C [cocaine] the “distribution t1/2α” value was 1.9 min and the “terminal elimination t1/2β” value was 26.1 min.
